# Reference: US8674109B2, “Pesticidal compositions” (Dow AgroSciences, LLC., priority 2009, dated 2014)
# Experiments:
# Assay type in all cases: in vivo
# [1] = test system: beet armyworm (BAW; Spodoptera exigua: Lepidoptera); test: Insecticidal test for beet armyworm, 128-well diet tray assay
# Experimental: Insecticidal Test for Beet Armyworm (Spodoptera exigua)
# (§1) Bioassays on beet armyworm (BAW; Spodoptera exigua: Lepidoptera) were conducted using a 128-well diet tray assay. Three to five second instar BAW larvae were placed in each well (3 mL) of the diet tray that had been previously filled with 1 mL of artificial diet to which 50 μg/cm^2 of the test compound (dissolved in 50 μL of 90:10 acetone-water mixture) had been applied (to each of eight wells) and then allowed to dry. Trays were covered with a clear self-adhesive cover, and held at 25° C., 14:10 light-dark for six days. Percent mortality was recorded for the larvae in each well; activity in the eight wells was then averaged.
# [2] = test system: corn earworm (CEW; Helicoverpa zea: Lepidoptera); test: Insecticidal test for corn earworm, 128-well diet tray assay
# Experimental: Insecticidal Test for Corn Earworm (Helicoverpa zea)
# as §1, with “corn earworm (CEW; Helicoverpa zea:” for “beet armyworm (BAW; Spodoptera exigua:”, “CEW” for “BAW”
# [3] = test system: green peach aphid (Myzus persicae); test: Insecticidal test for green peach aphid in foliar spray assay on cabbage seedlings
# Experimental: Insecticidal Test for Green Peach Aphid (Myzus persicae) in Foliar Spray Assay
# Cabbage seedlings grown in 3-inch pots, with 2-3 small (3-5 cm) true leaves, were used as test substrate. The seedlings were infested with 20-50 green peach aphids (wingless adult and nymph) one day prior to chemical application. Four pots with individual seedlings were used for each treatment. Compounds (2 mg) were dissolved in 2 mL of acetone/methanol (1:1) solvent, forming stock solutions of 1000 ppm. The stock solutions were diluted 5× with 0.025% Tween 20 in H2O to obtain the solution at 200 ppm. A hand-held Devilbiss sprayer was used for spraying a solution to both sides of cabbage leaves until runoff. Reference plants (solvent check) were sprayed with the diluent only. Treated plants were held in a holding room for three days at approximately 25° C. and 40% relative humidity (RH) prior to grading. Evaluation was conducted by counting the number of live aphids per plant under a microscope. Insecticidal activity was measured by using Abbott's correction formula are presented in Table 2: Corrected % Control=100*(X−Y)/X
# where • X=No. of live aphids on solvent check plants • Y=No. of live aphids on treated plants
Compound,% Mortality BAW 50 μg/cm^2 [1],% Mortality CEW 50 μg/cm^2 [2],% Mortality GPA 200 ppm [3]
"CCOC(=O)C#CC(C)(C)OC(=O)Nc1ccc(-c2ncn(-c3ccc(OC(F)(F)F)cc3)n2)cc1 [Compound 23, 4-methyl-4-{4-[1-(4-trifluoromethoxyphenyl)-1H-[1,2,4]triazol-3-yl]-phenylcarbamoyloxy}-pent-2-ynoic acid ethyl ester]",B (Less than 50),B (Less than 50),B (Less than 80)
"CC(OC(=O)Nc1ccc(-c2ncn(-c3ccc(OC(F)(F)F)cc3)n2)cc1)C(F)(F)C(F)(F)F (stereo not drawn) [Compound 24, {4-[1-(4-trifluoromethoxyphenyl)-1H-[1,2,4]triazol-3-yl]phenyl}-carbamic acid 2,2,3,3,3-pentafluoro-1-methyl-propyl ester]",A (50-100),A (50-100),B (Less than 80)
CC(C)(C)OC(=O)Nc1ccc(-c2ncn(-c3ccc(OC(F)(F)F)cc3)n2)cc1 [Compound 25],A (50-100),A (50-100),B (Less than 80)
"CC(OC(=O)Nc1ccc(-c2ncn(-c3ccc(C(F)(F)F)cc3)n2)cc1)c1ccc(C(F)(F)F)cc1 (stereo not drawn) [Compound 27, 1-(4-(trifluoromethyl)phenyl)ethyl 4-(1-(4-(trifluoromethyl)phenyl)-1H-1,2,4-triazol-3-yl)-phenylcarbamate]",A (50-100),A (50-100),B (Less than 80)
CC(OC(=O)Nc1ccc(-c2ncn(-c3ccc(C(F)(F)F)cc3)n2)cc1)c1ccc(C(F)(F)F)nc1 (stereo not drawn) [Compound 28],A (50-100),A (50-100),B (Less than 80)
C#CC(OC(=O)Nc1ccc(-c2ncn(-c3ccc(C(F)(F)F)cc3)n2)cc1)c1ccc(C(F)(F)F)cc1 (stereo not drawn) [Compound 29],A (50-100),A (50-100),B (Less than 80)
CCC(OC(=O)Nc1ccc(-c2ncn(-c3ccc(C(F)(F)F)cc3)n2)cc1)c1ccccc1 (stereo not drawn) [Compound 30],A (50-100),A (50-100),B (Less than 80)
C#CC(OC(=O)Nc1ccc(-c2ncn(-c3ccc(C(F)(F)F)cc3)n2)cc1)c1ccccc1 (stereo not drawn) [Compound 31],A (50-100),A (50-100),B (Less than 80)
CC(C)(CCl)OC(=O)Nc1ccc(-c2ncn(-c3ccc(OC(F)(F)C(F)(F)F)cc3)n2)cc1 [Compound 32],A (50-100),A (50-100),B (Less than 80)
CC(OC(=O)Nc1ccc(-c2ncn(-c3ccc(OC(F)(F)C(F)(F)F)cc3)n2)cc1)c1ccc(C(F)(F)F)nc1 (stereo not drawn) [Compound 33],A (50-100),A (50-100),B (Less than 80)
CCC(OC(=O)Nc1ccc(-c2ncn(-c3ccc(OC(F)(F)C(F)(F)F)cc3)n2)cc1)c1ccccc1 (stereo not drawn) [Compound 34],A (50-100),A (50-100),B (Less than 80)
CC(OC(=O)Nc1ccc(-c2ncn(-c3ccc(OC(F)(F)F)cc3)n2)cc1)c1ccc(I)cc1 (stereo not drawn) [Compound 35],A (50-100),A (50-100),B (Less than 80)
CC(OC(=O)Nc1ccc(-c2ncn(-c3ccc(OC(F)(F)F)cc3)n2)cc1)c1ccc2ccccc2n1 (stereo not drawn) [Compound 36],A (50-100),A (50-100),B (Less than 80)
Cc1cccc(C(C)OC(=O)Nc2ccc(-c3ncn(-c4ccc(OC(F)(F)F)cc4)n3)cc2)n1 (stereo not drawn) [Compound 37],A (50-100),A (50-100),B (Less than 80)
CC(C)c1ccc(C(C)OC(=O)Nc2ccc(-c3ncn(-c4ccc(OC(F)(F)F)cc4)n3)cc2)cc1 (stereo not drawn) [Compound 38],A (50-100),A (50-100),B (Less than 80)
CC(OC(=O)Nc1ccc(-c2ncn(-c3ccc(OC(F)(F)F)cc3)n2)cc1)c1ccc(Br)cc1 (stereo not drawn) [Compound 39],A (50-100),A (50-100),B (Less than 80)

Compound,% Mortality BAW 50 μg/cm^2 [1],% Mortality CEW 50 μg/cm^2 [2],% Mortality GPA 200 ppm [3]
CC(OC(=O)Nc1ccc(-c2ncn(-c3ccc(OC(F)(F)F)cc3)n2)cc1)c1ccc(C(C)(C)C)cc1 (stereo not drawn) [Compound 40],A (50-100),A (50-100),B (Less than 80)
CC(OC(=O)Nc1ccc(-c2ncn(-c3ccc(OC(F)(F)F)cc3)n2)cc1)c1ccc(C(F)(F)F)nc1 (stereo not drawn) [Compound 41],A (50-100),A (50-100),B (Less than 80)
CC(OC(=O)Nc1ccc(-c2ncn(-c3ccc(OC(F)(F)F)cc3)n2)cc1)c1ccc(C(F)(F)F)cc1 (stereo not drawn) [Compound 42],A (50-100),A (50-100),B (Less than 80)
O=C(Nc1ccc(-c2ncn(-c3ccc(OC(F)(F)F)cc3)n2)cc1)OC(c1ccccc1)c1ccc(C(F)(F)F)cc1 (stereo not drawn) [Compound 43],A (50-100),A (50-100),B (Less than 80)
C#Cc1ccc(C(C)OC(=O)Nc2ccc(-c3ncn(-c4ccc(OC(F)(F)F)cc4)n3)cc2)cc1 (stereo not drawn) [Compound 44],A (50-100),A (50-100),B (Less than 80)
CC(OC(=O)Nc1ccc(-c2ncn(-c3ccc(OC(F)(F)F)cc3)n2)cc1)c1ccc(C#N)cc1 (stereo not drawn) [Compound 45],A (50-100),A (50-100),B (Less than 80)
CC(OC(=O)Nc1ccc(-c2ncn(-c3ccc(OC(F)(F)F)cc3)n2)cc1)c1ccccn1 (stereo not drawn) [Compound 46],A (50-100),A (50-100),B (Less than 80)
Cc1ccc(C(C)OC(=O)Nc2ccc(-c3ncn(-c4ccc(OC(F)(F)F)cc4)n3)cc2)cn1 (stereo not drawn) [Compound 47],A (50-100),A (50-100),B (Less than 80)
CC(OC(=O)Nc1ccc(-c2ncn(-c3ccc(OC(F)(F)F)cc3)n2)cc1)c1ccncc1 (stereo not drawn) [Compound 48],A (50-100),A (50-100),B (Less than 80)
CC(C)(OC(=O)Nc1ccc(-c2ncn(-c3ccc(OC(F)(F)F)cc3)n2)cc1)c1ccc(C(F)(F)F)cc1 [Compound 49],A (50-100),A (50-100),B (Less than 80)
O=C(Nc1ccc(-c2ncn(-c3ccc(OC(F)(F)F)cc3)n2)cc1)OCc1ccc(C(F)(F)F)cc1 [Compound 50],B (Less than 50),B (Less than 50),B (Less than 80)
CC(OC(=O)Nc1ccc(-c2ncn(-c3ccc(OC(F)(F)F)cc3)n2)cc1)c1ccc(C(F)(F)F)[n+]([O-])c1 (stereo not drawn) [Compound 51],A (50-100),A (50-100),B (Less than 80)
C#CC(OC(=O)Nc1ccc(-c2ncn(-c3ccc(OC(F)(F)F)cc3)n2)cc1)c1ccc(Cl)nc1 (stereo not drawn) [Compound 52],A (50-100),A (50-100),B (Less than 80)
C#CC(OC(=O)Nc1ccc(-c2ncn(-c3ccc(OC(F)(F)F)cc3)n2)cc1)c1ccc(C(F)(F)F)nc1 (stereo not drawn) [Compound 53],A (50-100),A (50-100),B (Less than 80)
CC(OC(=O)Nc1ccc(-c2ncn(-c3ccc(OC(F)(F)F)cc3)n2)cc1)c1cnc(Cl)s1 (stereo not drawn) [Compound 54],A (50-100),A (50-100),B (Less than 80)
COc1ccc(C(C)OC(=O)Nc2ccc(-c3ncn(-c4ccc(OC(F)(F)F)cc4)n3)cc2)cn1 (stereo not drawn) [Compound 55],A (50-100),A (50-100),B (Less than 80)
